Reference: US10918610B2, “Compounds and methods of promoting myelination” (Case Western Reserve University, priority 2017, dated 2021)

Columns and labels:
human EBP = target: T1, human EBP (Homo sapiens, UniProt Q15125); assay: Zymostenol level in human cortical spheroids (on-target EBP inhibition); assay type: cell-based; conditions: 100 nM, versus DMSO
T1 construct: endogenous in cells; host or cells: human cortical spheroids derived from pluripotent stem cells

EBP = assay: Analysis of mouse brain sterol levels in vivo; set-up: species or system C57-BL6 mice; conditions: mice, 10 mg/kg once daily for 3 days, versus vehicle
Description: Ten to twelve week old male C57BL/6 mice were injected with Cis-N-cyclohexyl-N-ethyl-3-(3-chloro-4-cyclohexylphenyl)prop-2-enylamine dissolved in sterile saline daily for three days. Mice were anaesthetized with isoflurane and perfused with phosphate buffered saline to remove blood from the brain. Brains were collected and flash frozen using liquid nitrogen. The samples were pulverized and 50-100 milligrams of tissue were collected for further processing. A modified Folch protocol was used for extraction of sterols. Briefly, samples were resuspended in a 2:1 chloroform/methanol mixture and homogenized. Cell debris was removed by centrifugation at 4000 g for 10 min. The solution was dried under air and resuspended in hexane with a cholesterol-D7 standard and dried again. Lipids were derivatized with 70 al of bis(trimethylsilyl)trifluoroacetamide; 2 μls were injected and analyzed by GC/MS as described above.
Cis-N-cyclohexyl-N-ethyl-3-(3-chloro-4-cyclohexylphenyl)prop-2-enylamine was dissolved in a vehicle solution containing 80/10/10 saline/DMSO/Kolliphor. C57-BL6 mice were injected at 10 mg/kg once daily for 3 days with either vehicle (DMSO) or Cis-N-cyclohexyl-N-ethyl-3-(3-chloro-4-cyclohexylphenyl)prop-2-enylamine (n=5). (5 mice/condition). After 3 days, mice were anesthetized with isoflurane and perfused with phosphate buffered saline to remove blood from the brain. […] Lipids were derivatized with 70 ul of bis(trimethylsilyl) trifluoroacetamide; Samples were analyzed in […] using electron impact ionization; ion fragment abundances were integrated. 2 ul was analyzed by gas chromatography/mass spectrometry using an Agilent 5973 Network Mass Selective Detector equipped with a 6890 gas chromatograph system and a HP-5MS capillary column ([…]). Samples were analyzed in full scan mode using electron impact ionization; ion fragment peaks were integrated to calculate sterol abundance, and quantitation was relative to cholesterol-d7. The following ion fragments were used to quantitate each metabolite: zymostenol (458), zymosterol (456), Desmosterol. […]

human cortical spheroids = assay: MYRF+ oligodendrocytes in human cortical spheroids; assay type: cell-based; conditions: 30 nM from days 61-71, assayed on day 94, versus untreated
Description: Human cortical spheroids were generated as described in Madhavan et al, (Nature Methods, 15:700-706, 2018). In brief, spheroids were left untreated, or treated with Cis-N-cyclohexyl-N-ethyl-3-(3-chloro-4-cyclohexylphenyl)prop-2-enylamine (30 nM) from days 61-71 and assayed […] on day 94 for MyRF+ oligodendrocytes (Rabbit anti-MyRF antibody was generously provided by M. Wegner and used at 1:1000).
For patterning of neurocortical spheroids, pluripotent stem cell colonies cultured on vitronectin (Gibco; A14700) were lifted with dispase (Gibco; 17105-041) at 37° C. for 10 min. Intact colonies were transferred to individual low-adherence V-bottom 96-well plates (S-Bio Prime; MS-9096VZ) in 200 μl of spheroid starter media with 10 μM ROCK inhibitor Y-27632 (Calbiochem; 688001), 10 μM dorsopmorphin (Sigma; P5499), and 10 μM SB-431542 (Sigma; S4317). […]
Spheroids for immunohistochemistry were initially fixed with 4% ice-cold paraformaldehyde for 45 min, washed three times in PBS, and equilibrated with 30% sucrose overnight. […] Two fields from the top and bottom of the spheroid and two fields from the edges of the central region of the spheroids were quantified. […]

T1 sequence (Q15125 whole entry): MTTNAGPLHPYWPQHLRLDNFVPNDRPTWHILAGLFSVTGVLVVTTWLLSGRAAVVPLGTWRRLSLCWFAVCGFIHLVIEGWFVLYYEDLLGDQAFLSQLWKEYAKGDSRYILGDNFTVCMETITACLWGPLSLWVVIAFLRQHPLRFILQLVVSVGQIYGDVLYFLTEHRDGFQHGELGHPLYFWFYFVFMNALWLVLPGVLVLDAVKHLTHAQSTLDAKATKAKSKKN

In the case of `CCN(C/C=C\c1ccc(C2CCCCC2)c(Cl)c1)C1CCCCC1` [Cis-N-cyclohexyl-N-ethyl-3-(3-chloro-4-cyclohexylphenyl)prop-2-enylamine], the “zymostenol in human cortical spheroid cells (FIG. 6)” value (human EBP) is reported as “accumulation of EBP substrate zymostenol”, the “brain levels of desmosterol” value (EBP) is reported as “decreased” and the “brain levels of zymostenol” value (EBP) is reported as “increased”. The “brain levels of zymosterol” value (EBP) was “increased” and the “MYRF+ oligodendrocytes in human cortical spheroids” value (human cortical spheroids) was “selectively increase MYRF+ oligodendrocytes”.
